The values below come from patent publication US12383539B2 (Cavion, Inc., priority 2018, dated 2025).

Where “and” joins values, the source holds several entries; their conditions need not be identical. Equal values may be shown once. Read-outs that look alike come from different tables or passages of the source.

Data set [1] is classed as in vivo. Conditions: rat NOAEL 300 mg/kg, human 10 mg BID.
The format of data set [2] is in vivo. Conditions: dog NOAEL 30 mg/kg, human 10 mg BID.
Data set [3] in a line: Clinical PK crossover study of IR, MR1 and MR2 capsules, single 8 mg dose. It is filed as in vivo, human.
Description: Subjects will be screened for study eligibility within 28 days before administration of the first dose of study drug. Subjects who meet the study eligibility criteria will be admitted to the clinical research unit in the afternoon of the day before administration of the first dose of study drug (Period 1/Day −1).
Treatments A, B, and C will be separated by a minimum 7-day washout period. […] Administration of Treatment D may be separated from administration of Treatments A, B, and C by approximately 4 weeks to allow for analysis of the bioanalytical samples from the first 3 treatments.
A single dose, crossover clinical trial was conducted in 15 subjects ranging in age from 35-75 years.
The mark [4] stands for this setting: following a single 8 mg dose of IR CX-8998.
The mark [5] stands for this setting: following a single 8 mg dose of MR1 CX-8998.
The mark [6] stands for this setting: following a single 8 mg dose of MR2 CX-8998.

In the case of `C=C(C)c1ccc(CC(=O)N[C@H](C)c2ccc(OCC(F)(F)F)cn2)cc1` [M01], the “total safety margin, AUC24hr” value in data set [1] (Day 90, female) was determined as 13 fold; in data set [1] (Day 90, male), 6.8 fold; in data set [2] (Day 90, female), 5.6 fold; in data set [2] (Day 90, male), 6.5 fold. For the same compound, the “total safety margin, Css (animal Cmax / human estimated Css at steady state)” value in data set [1] (Day 90, female) was 21 fold; in data set [1] (Day 90, male), 13 fold; in data set [2] (Day 90, female) it was 8 fold and 8.0 fold; in data set [2] (Day 90, male) it was 10 fold. The “AUC72hr Ratio (metabolite to CX-8998)” value in data set [3] (setting [4]) came out at 0.92; in data set [3] (setting [5]) it was 0.95; in data set [3] (setting [6]), 0.90. The “Cmax Ratio (metabolite to CX-8998)” value in data set [3] (setting [4]) was determined as 0.14; in data set [3] (setting [5]), 0.27; in data set [3] (setting [6]), 0.35.
